Active and inactive are the calls of the source.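 How the source made its calls: active means maximal inhibition of USP17 at or above 30% in the confirmation dose-response, a value not among the printed readouts; inactive means the rest.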

The target in this experiment is Ubiquitin carboxyl-terminal hydrolase 17-like protein 5 (Homo sapiens) (UniProt A8MUK1). Briefly: ubiquitin-specific protease 17 inhibitors, concentration series, biochemical, verification of primary actives (AID 1645864). The following applies: purified USP17, ubiquitin-rhodamine cleavage fluorescence, 3 h.
Chain of Ubiquitin carboxyl-terminal hydrolase 17-like protein 5 (Homo sapiens) (A8MUK1 whole entry, looked up): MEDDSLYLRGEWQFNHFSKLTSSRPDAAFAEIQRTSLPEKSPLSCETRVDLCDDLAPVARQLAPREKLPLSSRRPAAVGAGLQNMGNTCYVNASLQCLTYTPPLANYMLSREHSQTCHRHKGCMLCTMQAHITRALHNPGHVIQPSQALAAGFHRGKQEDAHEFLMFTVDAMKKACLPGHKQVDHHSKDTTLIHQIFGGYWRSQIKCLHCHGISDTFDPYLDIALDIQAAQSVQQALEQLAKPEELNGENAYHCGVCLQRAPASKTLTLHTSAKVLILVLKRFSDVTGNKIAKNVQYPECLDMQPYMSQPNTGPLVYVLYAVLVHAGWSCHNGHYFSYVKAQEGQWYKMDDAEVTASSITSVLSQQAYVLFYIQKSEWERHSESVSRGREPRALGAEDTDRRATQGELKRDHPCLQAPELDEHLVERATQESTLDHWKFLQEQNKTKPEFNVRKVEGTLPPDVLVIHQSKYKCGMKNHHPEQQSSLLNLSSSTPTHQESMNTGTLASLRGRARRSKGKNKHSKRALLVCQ
As for `N#Cc1ccc(NC(=O)Nc2cccn(Cc3ccccc3F)c2=O)cc1`, the concentration for half-maximal inhibition (IC50) was 6.33 µM.
Then `O=C(COc1ccc(Cl)cc1)Nc1noc(-c2ccccc2)n1`, with 22.6 µM.
As for `Cc1ccc(CNC(=O)Cn2cnc3c(cnn3-c3cccc(Cl)c3)c2=O)cc1`, the half-maximal inhibitory concentration (IC50) was 1.49 µM.
On to `COc1ccc(S(=O)(=O)Nc2ccc(Nc3ccc(-n4cccn4)nn3)cc2)cc1`, for which the IC50 is 44.9 µM.
As to `O=C(Nc1ccc2c(c1)OCO2)C1CCN(Cc2nc3ccccc3s2)CC1`, the IC50 is > 50 µM (inactive).
For the molecule `O=c1ccc(-c2noc(Cc3cccc(Cl)c3)n2)c[nH]1`, the IC50 was > 50 µM (inactive).
With `COc1ccc(OC)c(C2CC(=O)Nc3n[nH]c(-c4ccccc4)c32)c1` (stereo unspecified), the half-maximal inhibitory concentration (IC50) was 24.6 µM.
On to `CCN(CC)c1nc(F)c2c(c1F)S(=O)(=O)CCN2Cc1ccccc1`, for which the IC50 was > 50 µM (inactive).
Then `O=C(Cn1c(=O)n(Cc2ccccc2)c(=O)c2ncccc21)NCc1ccccc1Cl`, with 37.9 µM.
As to `CC(C)c1ccc(C(C(=O)NC2CCCCC2)N(C(=O)c2cnccn2)c2cccc(F)c2)cc1` (stereo unspecified), the IC50 is 27.2 µM.
Then `Cc1ccc(/C=C/C(=O)Nc2ccc3c(c2)OCCO3)cc1`, with > 50 µM (inactive).
Regarding `Cc1ccc(-c2nnc(-n3ncc(C#N)c3N)c3ccccc23)cc1C`, the IC50 is > 50 µM (inactive).
For `COc1ccc(NC(=O)Nc2cccc(-c3nnc(-c4ccccc4)o3)c2)cc1OC` the value was 10.9 µM; for `Cc1cccc(NC(=O)CSc2nnc(-c3n[nH]c4c3CCC4)n2N)c1C`, 18.1 µM; for `CN1CC2CN(C(=O)Nc3cccnc3)CCN2Cc2ccccc21` (stereo unspecified), > 50 µM (inactive).
As for `Cc1cccc(C(=O)N2CCc3cc(-c4nc(NC(=O)CN5CCc6ccccc6C5)sc4C)ccc32)c1`, the IC50 is > 50 µM (inactive).
Then `COc1ccc(NC(=O)CNC(=O)c2ccc3nc(-n4cccc4)sc3c2)cc1`, with 3.15 µM.
As for `CCCc1cc(=O)n2[nH]c(COc3ccccc3)c(-c3ccccc3)c2n1`, the half-maximal inhibitory concentration (IC50) is 41.7 µM.
Take `CC[C@@]1(O)C[C@H](OC2CC(N(C)C)C(OC3CC(O)C(OC4CCC(=O)C(C)O4)C(C)O3)C(C)O2)c2c(cc3c(c2O)C(=O)c2c(O)ccc(O)c2C3=O)[C@H]1C(=O)OC` (stereo partly specified): the half-maximal inhibitory concentration (IC50) was 2.51 µM.
`Fc1cccc(-n2cc(-c3noc(-c4ccccn4)n3)nn2)c1`: the half-inhibitory concentration (IC50) is 30.1 µM.
Consider `O=C(Cn1cnc2ccccc21)Nc1ccc2c(c1)CCC2`, for which the concentration for half-maximal inhibition (IC50) is 27.9 µM.
For `CCc1ccc(-n2c(=O)c3ccccc3n(CC(=O)NCCC3=CCCCC3)c2=O)cc1` the value was 17.9 µM.
Turning to `COc1ccc(NC(=O)CC(=O)c2ccc([N+](=O)[O-])cc2)cc1S(=O)(=O)Nc1ccc(Br)cc1`, the IC50 was 22 µM.
`CCOC(=O)c1ccc(NC(=O)C[n+]2cc(-c3ccc(Cl)cc3)n3c2CCC3)cc1`: the IC50 was > 50 µM (inactive).
For `CCOc1ccc(NC(=O)Cn2c(=O)n(CCC(=O)NCc3ccccc3OC)c(=O)c3ccccc32)cc1`, the IC50 is 4.35 µM.
As to `O=S(=O)(c1cccc2cccnc12)N(CCc1ccccc1)C1CCN(CCc2ccc(Cl)cc2)CC1`, the IC50 is > 50 µM (inactive).
For `Cc1cnc2nc3c(cc2c1)CN(CCc1ccc(Cl)cc1)CC3` the value was > 50 µM (inactive).
As for `O=C(O)Cc1ccc(Nc2nc3ccccc3n3nnnc23)cc1`, the IC50 is > 50 µM (inactive).
As for `Cc1ccc(NC(=O)Cn2c(Nc3cccc(C)c3)nc(C)cc2=O)cc1`, the half-maximal inhibitory concentration (IC50) is 42.1 µM.
As to `CCOc1ccc(-c2noc(-c3nn(-c4cccc(OC)c4)ccc3=O)n2)cc1`, the concentration for half-maximal inhibition (IC50) is 10 µM.
Then `O=C(CSc1nnc(Cn2cnc3ccccc32)o1)Nc1ccc([N+](=O)[O-])cc1`, with 21.1 µM; and `COc1ccc(C(=O)N2CCCC3(C2)Nc2cccnc2NC3=NC2CCCC2)cn1` (stereo unspecified), with > 50 µM (inactive); and `CCC(=O)Nc1ccc2c(c1)nc(CSc1nccc(C)n1)n2CC`, with > 50 µM (inactive).
As to `COc1cc(NC(=O)c2cc(CN3CCOCC3)on2)cc(OC)c1`, the IC50 was > 50 µM (inactive).
As to `Cc1ccc(NC2=NC(c3ccco3)n3c(nc(C)cc3=O)N2)c(C)c1` (stereo unspecified), the IC50 is 4.62 µM.
For `N#Cc1ccccc1Cn1c(=O)n(Cc2ccco2)c(=O)c2ccccc21`, the 50% inhibitory concentration (IC50) was 36.6 µM.
Then `CCCc1nc2c(sc3nc4c(cc32)COC(C)(C)C4)c(=O)n1CC(=O)Nc1ccccc1C`, with 32.2 µM.
With `CCCn1c(=O)c(-c2ccc(C(=O)NCc3ccc(OC)cc3)cc2)nc2cccnc21`, the half-inhibitory concentration (IC50) was 1.78 µM.
For the molecule `CCOc1ccc(NC(=O)Cn2c(=O)n(CCC(=O)NCc3ccco3)c(=O)c3ccccc32)cc1`, the half-inhibitory concentration (IC50) is 5.43 µM.
With `Cc1noc(-c2cc(=O)n(CC(=O)NCc3ccccc3F)c3ccccc23)n1`, the half-inhibitory concentration (IC50) was 4.88 µM.
`Cn1c(=O)sc2cc(NC(=O)c3ccc(Br)cc3)ccc21`: the IC50 is 1.8 µM.
Turning to `CCN1C(SCc2ccccc2F)=NS(=O)(=O)c2ccccc21`, the IC50 is > 50 µM (inactive).
For `CN1CCN(C(=O)c2cc(-c3ccn(-c4ccccc4)n3)n3ccccc23)CC1`, the IC50 was > 50 µM (inactive).
For the molecule `O=C(NC1CCCC1)c1cccc(-c2ccc(N3CCCC3)nc2)c1`, the half-maximal inhibitory concentration (IC50) is 4.53 µM.
For `CCOc1ccc(Nc2cc(C(=O)NCCc3ccccc3)c3ccccc3n2)cc1`, the IC50 is 24.1 µM.
In the case of `COc1cccc(C(=O)NCC(=O)Nc2nc3ccccc3[nH]2)c1`, the half-maximal inhibitory concentration (IC50) was 38.6 µM.
On to `COc1ccccc1/C=C/C(=O)Nc1nc2n(n1)C(c1ccc(Cl)cc1)CC(=O)N2` (stereo unspecified), for which the IC50 is > 50 µM (inactive).
Regarding `CC(C)(C)C(=O)NC(c1ccccc1)c1nnc(N2CCOCC2)o1` (stereo unspecified), the IC50 was > 50 µM (inactive).
Turning to `Cc1ccccc1Cn1ccc(NC(=O)c2noc(C)c2[N+](=O)[O-])n1`, the IC50 was > 50 µM (inactive).
Take `COc1cc2c(cc1OC)-c1cc(NCc3cc(OC)c(OC)c(OC)c3)nc(=O)n1CC2`: the IC50 is > 50 µM (inactive).
Regarding `COc1ccc(-n2c(SCC(=O)c3ccc(F)cc3)nnc2-c2cccnc2)cc1`, the 50% inhibitory concentration (IC50) is 23.8 µM.
For `O=C(Nc1ccccc1)c1cn(-c2cc(N3CCCC3)ncn2)cn1` the value was > 50 µM (inactive); for `Nc1ccc(F)c(NS(=O)(=O)c2ccccc2)c1`, > 50 µM (inactive); for `CCOC(=O)c1cc2c(ccn2C)n1CC(=O)N1CCC(C)CC1`, > 50 µM (inactive).
As to `C=C1CCC2[C@](C)(CCC[C@]2(C)C(=O)OC)[C@H]1CCc1ccoc1/C=C/C(=O)O` (stereo partly specified), the IC50 was 32.5 µM.
On to `Cc1ccccc1NC(=O)CNc1nc(Nc2ccccc2)nc(Nc2ccccc2)n1`, for which the half-maximal inhibitory concentration (IC50) was 21.7 µM.
For `COc1cc(NC(=O)c2cc(-c3ccncc3)n(-c3ccc(F)cc3)n2)cc(OC)c1` the value was > 50 µM (inactive).
`O=C1NC(=O)/C(=C/c2ccc(OC(=O)c3ccc(Cl)cc3Cl)cc2)N1`: the IC50 was 13.7 µM.
As for `Cc1ccc(NC(=O)/C=C/c2cccc(C(F)(F)F)c2)c(O)c1`, the IC50 was 8.3 µM.
As to `CC1=C(c2ccc(F)cc2)S(=O)(=O)NC1=NCC(=O)Nc1ccc(F)cc1F`, the half-maximal inhibitory concentration (IC50) was 25.9 µM.
With `O=C(Nc1ccc(N2CCOCC2)cc1)c1ccc(-c2ccc(N3CCCC3)nn2)cc1`, the IC50 is > 50 µM (inactive).
Regarding `O=C(NC(Cc1ccccc1)c1nc2ccccc2[nH]1)c1ccccn1` (stereo unspecified), the IC50 was > 50 µM (inactive).
As for `CCCC(=O)c1c[nH]c(C(=O)NCc2ccc(F)cc2)c1`, the half-inhibitory concentration (IC50) was 14.5 µM.
Take `CS(=O)(=O)NC1CCCN(C(=O)Nc2cccc3ccccc23)C1` (stereo unspecified): the IC50 was 17.3 µM.
For the molecule `O=C(Cn1cccc1-c1nc(-c2ccccc2)cs1)N1CCOCC1`, the 50% inhibitory concentration (IC50) was 16 µM.
`CCC(=O)Nc1ccccc1-c1nc2ccccc2n(CC(=O)Nc2cc(OC)ccc2OC)c1=O`: the IC50 was 18.6 µM.
Regarding `COc1ccc(NC(=O)C2CC(=O)Nc3c(-c4ccc(Cl)cc4)cnn32)c(OC)c1` (stereo unspecified), the IC50 is 9.36 µM.
Consider `CCOc1ccc(NS(=O)(=O)c2ccc(NC(=O)Nc3ccccc3)cc2)cc1`, for which the IC50 was 17.9 µM.
For the molecule `O=C(Cn1nc2c3c4c(sc3ncn2c1=O)CCCCC4)Nc1ccc(Cl)cc1F`, the IC50 was 2.08 µM.
As for `O=C(OCCCN1C(=O)c2cccc3c(N4CCCCC4)ccc(c23)C1=O)c1ccccn1`, the IC50 is > 50 µM (inactive).
Regarding `O=C(CCc1c[nH]c2ccccc12)Nc1ccc(N2CCOCC2)cc1`, the IC50 is 30.5 µM.
Regarding `Cc1ccc2nc(N3CCc4ccccc4C3)c3nncn3c2c1`, the IC50 is > 50 µM (inactive).
As for `CCc1c(C)c(C#N)c2nc3ccccc3n2c1N1CCN(C2CCCC2)CC1`, the half-inhibitory concentration (IC50) is 3.06 µM.
For `CO[C@H]1/C=C/OC2(C)Oc3c(C)c(O)c4c(c3C2=O)C2(C=C(NC(=O)/C(C)=C\C=C\[C@H](C)[C@H](O)[C@@H](C)[C@@H](O)[C@@H](C)[C@H](OC(C)=O)C1C)C4=O)OCC(=O)O2` (stereo partly specified) the value was 42.6 µM; for `CCN1CCCC1CN(Cc1cc2cc(OC)ccc2[nH]c1=O)C(=O)NCc1ccccc1` (stereo unspecified), > 50 µM (inactive); for `COc1ccc(C(=O)Nc2nc3n(n2)C(c2ccccc2)CC(=O)N3)cc1` (stereo unspecified), 10.2 µM.
Turning to `CC1CCN(Cc2nnc(-c3cn(CC(=O)NC4CCCCC4)c4ccccc34)o2)CC1`, the IC50 is > 50 µM (inactive).
Regarding `O=C(/C=C/C=C/C=C/C1CCCCC1)NC1=C[C@@](O)(/C=C/C=C/C=C/C(=O)NC2=C(O)CCC2=O)[C@@H]2O[C@@H]2C1=O`, the concentration for half-maximal inhibition (IC50) was 3.32 µM.
As for `O=C1COc2ccc(NC(=O)c3cnn(Cc4ccccc4)c3)cc2N1`, the IC50 is 39.4 µM.
For the molecule `CCC[C@H]1O[C@@H]2CC(=O)O[C@@H]2C2=C1C(=O)c1c(O)cccc1C2=O`, the IC50 was 1.08 µM.
Then `COc1ccc(NC(=O)c2nnc(C(=O)NCCN3CCCCCC3)s2)cc1`, with 3.05 µM.
For `Cc1ccc2cc3c(nc2n1)CCN(Cc1ccc(F)cc1)C3` the value was > 50 µM (inactive); for `O=C(COc1ccc(S(=O)(=O)N2CCOCC2)cc1)N1CCC(Cc2ccccc2)CC1`, > 50 µM (inactive).
Then `O=C(COC(=O)CCc1ccc(S(=O)(=O)N2CCOCC2)cc1)Nc1ccc2c(c1)OCCO2`, with > 50 µM (inactive).
On to `COc1cccc(NC(=O)CSc2nnc(-c3cc4cccc(OC)c4o3)n2C)c1`, for which the IC50 was 11.9 µM.
In the case of `O=C1Oc2nc3ccccc3cc2CN1Cc1ccco1`, the IC50 was 23.9 µM.

(Values after PubChem BioAssay AID1645864 (Buhrlage Lab, Dana-Farber Cancer Institute and Novartis …, 2021).)
